Source: patent US20120269815A1, “NEUROTROPHINS AND USES THEREOF” (Regents of the University of Minnesota, priority 2008, published 2012)
No end group written: not given here.

What was measured:
[1] = Food consumption after ICV TUF1 peptide infusion; format: in vivo; conditions: rat, ICV administration
Method: (§1) a) Intra-cerebroventricular (ICV) Cannulation Male Sprague-Dawley rats weighing 250-400 grams were anesthetized with ketamine (100 mg/kg) and xylazine (7 mg/kg) and placed in a stereotaxic device (David Kopf Instruments Corp., Tunjunga, Calif.) using atraumatic ear bars. An incision of the skin overlying the skull was made and anchor screws were inserted into the skull. Burr holes were drilled to allow the guide cannula to pass into the brain. The guide cannula (22-gauge, C313G; Plastics One, Roanoke, Va.) was placed at 0 mm posterior, 1.2 mm lateral and 3.5 mm ventral to bregma. The cannula was affixed using epoxy glue (Loctite 444; McMaster-Carr, Chicago, Ill.) followed by dental acrylic (Hygienic perm reline & repair resin, Type II, Class I; Henry Schein, Inc., Melville, N.Y.). The cannula was sealed and kept open by insertion of a ‘dummy’ cannula.
b) TUF1 Peptide Infusion 0 μg, 1 μg, or 10 μg TUF1 peptide diluted in artificial cerebrospinal fluid (aCSF, Harvard Apparatus, Holliston, Mass.) was injected into the brain through the in-dwelling cannulae immediately prior to behavioral measurement (described below). […]
Food intake, in grams, was measured by weighing food in the hopper daily for the two days prior to drug infusion and for the drug infusion days, and calculating the amount eaten by subtracting each day's food weight from that of the previous day.

[2] = Fear-potentiated startle after ICV TUF1 peptide infusion; format: in vivo, rat; conditions: adult male rats
Method: as §1, with “cannula. […]” for “cannula.”
(§2) For fear potentiated startle, shock sensitization, and prepulse inhibition testing, animals were trained and tested in four identical 7.5 cm×9 cm×17 cm stabilimeter devices. […] Shock intensity was measured with a 1-kΩ resistor across a differential channel of an oscilloscope in series with a 100-kΩ resistor connected between two floor bars in each cage. Current was defined as the RMS voltage across the resistor and calculated in mA as 0.707×0.5 ×peak-to-peak voltage. […]

[3] = Prepulse inhibition of startle after ICV TUF1 peptide infusion; format: in vivo, rat; conditions: adult male rats, 1.0 μg or 10 μg ICV
Method: as §1, with “cannula. […]” for “cannula.”
as §2

[4] = test system: GT1-1 cells; conditions: 24 hr serum deprivation, 3.6 μM peptide
Method: GT1-1 cell survival assays: GT1-1 cells are immortalized cell line derived from mouse embryonic hypothalamus (a gift from Dr. Richard Weiner, UCSF).
a) Suppression of TUF1 expression by RNAi GT1-1 cells were seeded at 100,000 cells/well in a 12-well plate (as described in Example 1) and incubated for 72 hours at 37° C. supplemented with 5% CO2. Fresh growth media were added for at least 1 hour before cells were transfected with negative control RNAi or TUF1-specific RNAi (150 picomoles diluted in OptiMEM, Stealth RNAi, Invitrogen Corp., Carlsbad, Calif.) using Fugene6 (1.5 μl/200 μl medium, Roche Diagnostics Corp., Indianapolis, Ind.) and incubated overnight. […] Cells were then lifted from the well by adding Trypsin-EDTA (Invitrogen Corp., Carlsbad, Calif.) and surviving cells were counted by Trypan Blue exclusion using a hemocytometer and an inverted microscope. […]
b) Repression of TUF1 activity by anti-TUF1 peptide antibody (IgG) GT1-1 cells were seeded at 100,000 cells/well and incubated for 72 hours as described above. […] Surviving cells were lifted from wells and counted as described in part (a). […]
Cells were treated with serum-free media supplemented with 0.0 μg/ml, 2.5 μg/ml (1.8 μM), or 5.0 μg/m (3.6 μM) TUF1 peptide. Surviving cells were counted at 24 hours, 48 hours, and 72 hours of incubation as described in part (a). […]

[5] = Shock sensitization of startle after ICV TUF1 peptide infusion; format: in vivo, rat; conditions: adult male rats, 1.0 μg or 10 μg ICV
Method: as §1, with “cannula. […]” for “cannula.”
as §2

[6] = test system: Cortical neurons and glia; experiment: Glutamate-induced excitotoxicity in cultured cortical neurons; format: cell-based, mice; conditions: 500 μM glutamate, then 0.2-1.8 μM peptide for 24 hours
Method: To assess the trophic effect of TUF1 peptide on primary culture neurons, we assayed the effect of TUF1 supplementation on glutamate-induced excitotoxicity in neuronal cultures. Cortical neurons and glia were cultured from newborn mice for seven days. Cultures were then treated with 500 μM glutamate (diluted in N2tox solution, Invitrogen Corp., Carlsbad, Calif.) and incubated at 37° C. for ten minutes. Glutamate was removed from cultures by two washes with EBSS media (Invitrogen Corp., Carlsbad, Calif.). Cultures were then incubated in EBSS media supplemented with 0.0 μM, 0.2 μM, 0.4 μM, 0.9 μM, or 1.8 μM TUF1 peptide for 24 hours. Surviving neurons from cultures were manually counted by Trypan Blue exclusion using an inverted microscope. Values are means±SD, n=6-8/group.

**Q.** What does the source list for AYKSYVRALPLL [TUF1[43-54]]?
**A.** food consumption [1]: influences food consumption; shock reactivity ([2]; 1.0 μg or 10 μg ICV): No effect; fear potentiated startle ([2]; 1.0 μg or 10 μg via lateral ventricle cannulae, vs control subjects): reduced fear potentiated startle; pre-pulse inhibition [3]: No effect; effect on cell survival [4]: no effect; shock sensitization [5]: No effect; neural excitotoxicity induced by glutamate [6]: reduces neural excitotoxicity induced by glutamate
